6 compounds from patent US20120052555A1, “ENRICHMENT OF LISTERIA SPP” (SAMSUNG TECHWIN CO., LTD., priority 2010, published 2012) can be followed below.

“Also recorded” adds a separate entry of the source.

One experiment relates to L. grayi strains. The experiment is described as follows: Culture of five L. grayi strains in the presence of antibiotics. Format: cell-based, Listeria grayi. The note with it: 35° C. in Minimal Media A1; 10 mg/L acriflavine, 40 mg/L nalidixic acid, 10 mg/L polymyxin B, 40 mg/L ceftazidime. As to the method:
Separately, five L. grayi strains were cultured at 35° C. in the Minimal Media A1 supplemented separately with 10 mg/L of acriflavine, 40 mg/L of nalidixic acid, 10 mg/L of polymyxin B, 40 mg/L of ceftazidime, and a combination thereof. As a result, the effects of each antibiotic on the growth of L. grayi were trivial. […] The two strains reached maximum cell densities within about 24 hours.

Experiment [1] relates to heat-injured Listeria monocytogenes. The experiment can be described thus: Recovery of sub-lethally heat-injured Listeria cells on Minimal Medium A1 agar. Format: cell-based. The note with it: cells heated 50° C. 10 minutes; for effect in recovering heat-injured Listeria spp.: Minimal Medium supplemented with the agent. Here is the method: Most Listeria infection cases are associated with pasteurized dairy products. Therefore, the effects of the Minimal Medium A1 on the recovery of sub-lethally heat-injured Listeria spp. were investigated. Overnight-cultured Listeria monocytogenes was serially diluted by 10 folds with PBS. 1 mL of the culture suspension (about 3780 CFU) was cultured at 50° C. for 10 minutes, and 0.1 mL of the culture product was inoculated on the Minimal Medium A1 in agar plate (1.5% agar) in the presence or non-presence of selective agents.
FIG. 4 is a graph illustrating the effects of medium ingredients on the recovery of heat-injured Listeria spp. […] In FIG. 4, “Pyruvate” indicates a Minimal Medium A1 supplemented with sodium pyruvate, “A1-NONE” indicates a Minimal Medium A1 supplemented with none, and “BHI-NONE” indicates a brain heart infusion medium supplemented with none. “Acriflavine,” “Nalidixic acid,” “Polymyxin B,” “Ceftazidime” and “All” denote Minimal Media A supplemented with […], 40 mg/L of nalidixic acid, 10 mg/L of polymyxin B, 40 mg/L of ceftazidime, and all of these antibiotics, respectively.

The next experiment has as its system background microflora. The experiment is described as follows: Effects of antibiotics on background microflora of ground beef (aerobic plate counts). Format: cell-based. Particulars: 10 g/L ground beef, 35° C., Minimal Media A; among the four antibiotics. As to the method: In addition, effects of antibiotics on background microflora were investigated. First, 10 g/L of ground beef was cultured at 35° C. in the Minimal Media A supplemented separately with 10 mg/L of acriflavine, 40 mg/L of nalidixic acid, 10 mg/L of polymyxin B, 40 mg/L of ceftazidime, and a combination thereof. The cell concentrations before and after culture were determined based on aerobic plate counts. The aerobic plate counts were determined by inoculating 100 μL of the culture products into Difco® Plate Count agar medium, culturing the mixture at 35° C. for 24 hours, and counting cell colonies
FIG. 3 is a graph illustrating the effects of antibiotics on background microflora. Referring to FIG. 3, the growth of the background microfluora was inhibited about 100 times more strongly when the four antibiotics were added together, than when they were used individually.

The next experiment concerns Listeria monocytogenes. The experiment is described as follows: Effect of LiCl concentration in Minimal Medium A1 on cell growth (PCR Cp). Format: cell-based. Particulars: LiCl 1, 3, 5, 7, 9 or 10 g/L in Minimal Medium A1. As to the method: 300 μL of overnight cultures (about of 3×10^9 CFU/ml) of Listeria monocytogenes in a brain hear infusion (BHI) medium was added into 30 mL of each of the pre-warmed media in 250 ml glass flask. Each mixture was cultured without shaking at 35° C. for 24 hours. Aliquots (20 μL) of the culture products were collected from each container after culture for 1, 2, 3, 4, 5, 6, 7, 8, 9 and 24 hours, respectively. Each culture product was treated with a TZ lysis buffer with 1 mg/ml proteinase K, and incubated at 55° C. for 15 min, 95° C. for 10 min, and cooled at 4° C. for 2 min. Cell lysates were added into the PCR mixture for real-time PCR. The PCR mixture contained forward and reverse primers of SEQ ID NOs. 5 and 6, the probe of SEQ ID No. 7, and the RNase H. The primers and probe were specific to the InlA gene of L. monocytogenes. The 5′ and 3′ ends of the probe were labeled with FAM and Iowa BFQ ([…]), respectively.
The PCR conditions were as follows: UNG activation at 37° C. for 600 seconds; Denaturation at 95° C. for 600 seconds; Denaturation at 95° C. for 15 seconds; and annealing and elongation at 60° C. for 20 seconds (50 cycles). […]

Turning to polymyxin B, the “effect on the growth of L. grayi” value in the experiment on L. grayi strains is listed as “trivial”. For the same compound, the “effect in recovering heat-injured Listeria spp.” value in experiment [1] is “positive effects”.

As for `CC(C)(O/N=C(\C(=O)N[C@@H]1C(=O)N2C(C(=O)[O-])=C(C[n+]3ccccc3)CS[C@H]12)c1csc(N)n1)C(=O)O` [ceftazidime], the “effect on the growth of L. grayi” value in the experiment on L. grayi strains was “trivial”. Also, the “effect in recovering heat-injured Listeria spp.” value in experiment [1] was “positive effects”.

As for acriflavine, in the experiment with L. grayi strains, the “effect on the growth of L. grayi” value is “trivial”. Besides, in experiment [1], the “effect in recovering heat-injured Listeria spp.” value was “positive effects”.

Regarding `CCn1cc(C(=O)O)c(=O)c2ccc(C)nc21` [nalidixic acid], the “effect on the growth of L. grayi” value with L. grayi strains is given as “trivial”. For the same compound, the “inhibitory effect on cell growth of background microflora” value with background microflora is reported as “strongest inhibitory effect on cell growth”.

With `[Cl-].[Li+]` [LiCl, lithium chloride], the “effect of LiCl concentration on Cp values / cell growth” value with Listeria monocytogenes was “high LiCl concentration helped recovery of Listeria; also recorded: the smaller the Cp values and the more the cell growth was enhanced”.

With `CC(=O)C(=O)[O-].[Na+]` [sodium pyruvate], in experiment [1] (10 g/L of sodium pyruvate compared to 10 mM of MgCl2), the “recovery rate of heat-injured Listeria spp.” value was “recovery rate was improved”. Besides, the “effect in recovering heat-injured Listeria spp.” value in experiment [1] was “positive effects”.
